Laboratory results from PubChem BioAssay AID248 (DTP/NCI, 2004).
Where “and” joins values, the source holds several entries; their conditions need not be identical. Identical values can stand only once. Toxic doses and inconclusive results are not listed.

Tested on: L1210 leukemia ip in BDF1 mice, survival T/C
Test: NCI In Vivo Anticancer Drug Screen. Data for tumor model L1210 Leukemia (intraperitoneal) in B6D2F1 (BDF1) mice
Conditions: endpoint: mean survival time, higher = longer survival
In short: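 In this screen, tumor-bearing mice given compound are compared to those given vehicle, and their survival values are reported as a treated-to-control quotient.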

[1] = dose: 25.0 mg/kg/injection, schedule: Q01DX009 (ip), vehicle: Klucel (hydroxypropylcellulose) (HPC)
[2] = dose: 50.0 mg/kg/injection, schedule: Q01DX009 (ip), vehicle: Klucel (hydroxypropylcellulose) (HPC)
[3] = dose: 100.0 mg/kg/injection, schedule: Q01DX009 (ip), vehicle: Klucel (hydroxypropylcellulose) (HPC)
[4] = dose: 100.0 mg/kg/injection, schedule: Q04DX003 (ip), vehicle: Klucel (hydroxypropylcellulose) (HPC)
[5] = dose: 200.0 mg/kg/injection, schedule: Q04DX003 (ip), vehicle: Klucel (hydroxypropylcellulose) (HPC)
[6] = dose: 400.0 mg/kg/injection, schedule: Q04DX003 (ip), vehicle: Klucel (hydroxypropylcellulose) (HPC)
[7] = dose: 100.0 mg/kg/injection, schedule: Q01DX001 (ip), vehicle: saline
[8] = dose: 100.0 mg/kg/injection, schedule: Q01DX009 (ip), vehicle: saline with Tween-80
[9] = dose: 200.0 mg/kg/injection, schedule: Q01DX001 (ip), vehicle: saline
[10] = dose: 200.0 mg/kg/injection, schedule: Q01DX009 (ip), vehicle: saline with Tween-80
[11] = dose: 400.0 mg/kg/injection, schedule: Q01DX001 (ip), vehicle: saline
[12] = dose: 100.0 mg/kg/injection, schedule: Q04DX003 (ip), vehicle: saline with Tween-80
[13] = dose: 200.0 mg/kg/injection, schedule: Q04DX003 (ip), vehicle: saline with Tween-80
[14] = dose: 400.0 mg/kg/injection, schedule: Q04DX003 (ip), vehicle: saline with Tween-80
[15] = dose: 100.0 mg/kg/injection, schedule: Q04DX003 (ip), vehicle: saline
[16] = dose: 200.0 mg/kg/injection, schedule: Q04DX003 (ip), vehicle: saline
[17] = dose: 400.0 mg/kg/injection, schedule: Q04DX003 (ip), vehicle: saline
[18] = dose: 100.0 mg/kg/injection, schedule: Q01DX001 (ip), vehicle: carboxymethylcellulose (CMC)
[19] = dose: 100.0 mg/kg/injection, schedule: Q04DX002 (ip), vehicle: saline with Tween-80
[20] = dose: 200.0 mg/kg/injection, schedule: Q04DX002 (ip), vehicle: saline with Tween-80
[21] = dose: 400.0 mg/kg/injection, schedule: Q04DX002 (ip), vehicle: saline with Tween-80

With `CC1(C)CN1P(=O)(N1CC1(C)C)N1CC1(C)C` (centres undefined) the T/C (dose: 1.25 mg/kg/injection, schedule: Q01DX009 (ip), vehicle: saline) was 105 % of control, the T/C (dose: 2.5 mg/kg/injection, schedule: Q01DX009 (ip), vehicle: saline) was 111 % of control and the T/C (dose: 5.0 mg/kg/injection, schedule: Q01DX009 (ip), vehicle: saline) was 107 % of control. For the same molecule, the T/C (dose: 6.0 mg/kg/injection, schedule: Q01DX009 (ip), vehicle: saline) was 182 % of control, the T/C (dose: 12.0 mg/kg/injection, schedule: Q01DX009 (ip), vehicle: saline) was 151 % of control and the T/C (dose: 20.0 mg/kg/injection, schedule: Q01DX009 (ip), vehicle: saline) was 194 % of control. The T/C (dose: 22.0 mg/kg/injection, schedule: Q01DX009 (ip), vehicle: saline) was 222 % of control, the T/C (dose: 33.0 mg/kg/injection, schedule: Q01DX009 (ip), vehicle: saline) was 213 % of control and the T/C (dose: 40.0 mg/kg/injection, schedule: Q01DX009 (ip), vehicle: saline) was 269 % of control. The T/C (dose: 50.0 mg/kg/injection, schedule: Q01DX009 (ip), vehicle: saline) was 204 % of control, the T/C (dose: 75.0 mg/kg/injection, schedule: Q01DX009 (ip), vehicle: saline) was 95 % of control and the T/C (dose: 112.5 mg/kg/injection, schedule: Q01DX001 (ip), vehicle: saline) was 184 % of control. The T/C (dose: 150.0 mg/kg/injection, schedule: Q01DX001 (ip), vehicle: saline) was 225 % of control and 86 % of control.

`CC[CH](C)[Hg][c]1cccc2ccccc12` (centres undefined) was tested, and the T/C [1] was 96 % of control, the T/C [2] was 97 % of control and the T/C [3] was 97 % of control and 100 % of control. For the same molecule, the T/C [4] was 100 % of control, the T/C [5] was 97 % of control and the T/C [6] was 96 % of control.

In the case of `CSc1ccc(NC(=O)c2ccc(C(=O)Nc3ccc(SC)cc3)cc2)cc1`, the T/C [3] is reported as 94 % of control, the T/C (dose: 200.0 mg/kg/injection, schedule: Q01DX009 (ip), vehicle: Klucel (hydroxypropylcellulose) (HPC)) is reported as 89 % of control and the T/C (dose: 400.0 mg/kg/injection, schedule: Q01DX009 (ip), vehicle: Klucel (hydroxypropylcellulose) (HPC)) is reported as 89 % of control.

`CC1CC([O-])=N/[N+]1=C\c1ccccc1` (centres undefined) was tested, and the T/C [7] was 97 % of control, the T/C [8] was 96 % of control and the T/C [9] was 95 % of control. For the same molecule, the T/C [10] was 87 % of control and the T/C [11] was 97 % of control.

With `CCCCCCCCCCCCCCCCCCN1CNC(=O)NC1` the T/C [4] was 93 % of control and the T/C [5] was 101 % of control.

For `CC/C(=C(\CC)c1ccc(OCC(=O)N2CC2)cc1)c1ccc(OCC(=O)N2CC2)cc1`, the T/C (dose: 2.5 mg/kg/injection, schedule: Q04DX002 (ip), vehicle: saline) was 101 % of control, the T/C (dose: 5.0 mg/kg/injection, schedule: Q04DX002 (ip), vehicle: saline) was 101 % of control and the T/C (dose: 10.0 mg/kg/injection, schedule: Q04DX002 (ip), vehicle: saline) was 105 % of control.

For `CC(=O)OCCN1CC1`, the T/C (dose: 3.12 mg/kg/injection, schedule: Q01DX009 (ip), vehicle: saline) was 116 % of control, the T/C (dose: 6.25 mg/kg/injection, schedule: Q01DX009 (ip), vehicle: saline) was 122 % of control and the T/C (dose: 12.5 mg/kg/injection, schedule: Q01DX009 (ip), vehicle: saline) was 118 % of control.

In the case of `Nc1ncnc(NC2CCCCC2)n1`, the T/C (dose: 6.25 mg/kg/injection, schedule: Q01DX009 (ip), vehicle: Klucel (hydroxypropylcellulose) (HPC)) is reported as 100 % of control, the T/C (dose: 12.5 mg/kg/injection, schedule: Q01DX009 (ip), vehicle: Klucel (hydroxypropylcellulose) (HPC)) is reported as 94 % of control and the T/C [1] is reported as 97 % of control and 98 % of control. The T/C [2] was 111 % of control, the T/C [4] was 91 % of control and the T/C [6] was 98 % of control.

With `CCOC(=O)CCC(C(=O)OCC)N(CC(=O)OCC)C(=O)c1ccccc1` (centres undefined) the T/C [12] was 102 % of control, the T/C [13] was 98 % of control and the T/C [14] was 96 % of control.

For `ClCCCCOCC1CCCO1` (centres undefined), the T/C [8] was 100 % of control and the T/C [10] was 107 % of control.

With `c1ccc(SCN2CCN(CSc3ccccc3)CC2)cc1` the T/C [15] was 101 % of control, the T/C [16] was 101 % of control and the T/C [17] was 98 % of control.

For `Nc1ccc(-c2ccc(N)c(Cl)c2)cc1Cl`, the T/C [15] was 100 % of control, the T/C [16] was 103 % of control and the T/C [17] was 91 % of control.

With `CC(O)C1OC1C(C)O` (centres undefined) the T/C (dose: 25.0 mg/kg/injection, schedule: Q04DX002 (ip), vehicle: saline) was 93 % of control, the T/C (dose: 50.0 mg/kg/injection, schedule: Q04DX002 (ip), vehicle: saline) was 101 % of control and the T/C (dose: 100.0 mg/kg/injection, schedule: Q04DX002 (ip), vehicle: saline) was 112 % of control.

`Nc1ccccc1/C=C(\C(=O)O)c1cccc(Cl)c1` was tested, and the T/C [4] was 99 % of control, the T/C [5] was 101 % of control and the T/C [6] was 108 % of control.

For `CCCCNC(=S)N(CCCC)CCCC`, the T/C [15] was 96 % of control, the T/C [16] was 103 % of control and the T/C [17] was 96 % of control.

With `Cc1ccc(C2OC23CC(C)(C)c2ccccc2C3=O)cc1` (centres undefined) the T/C [12] was 93 % of control, the T/C [13] was 96 % of control and the T/C [14] was 93 % of control.

For `NC(N)=NS(=O)(=O)c1ccc(C(N)=NC2CCCCC2)cc1`, the T/C [7] was 96 % of control, the T/C [9] was 96 % of control and the T/C [11] was 90 % of control.

In the case of `OCC(c1ccccc1)C(O)Cc1ccccc1` (centres undefined), the T/C [18] is reported as 97 % of control, the T/C (dose: 200.0 mg/kg/injection, schedule: Q01DX001 (ip), vehicle: carboxymethylcellulose (CMC)) is reported as 95 % of control and the T/C (dose: 400.0 mg/kg/injection, schedule: Q01DX001 (ip), vehicle: carboxymethylcellulose (CMC)) is reported as 101 % of control.

`NC(=O)C(F)(F)C(F)(F)C(F)(F)F` was tested, and the T/C (dose: 50.0 mg/kg/injection, schedule: Q01DX001 (ip), vehicle: Klucel (hydroxypropylcellulose) (HPC)) was 97 % of control, the T/C (dose: 100.0 mg/kg/injection, schedule: Q01DX001 (ip), vehicle: Klucel (hydroxypropylcellulose) (HPC)) was 97 % of control and the T/C (dose: 200.0 mg/kg/injection, schedule: Q01DX001 (ip), vehicle: Klucel (hydroxypropylcellulose) (HPC)) was 103 % of control.

For `O=C(N/N=C\c1c[nH]c2ccccc12)N/N=C/c1c[nH]c2ccccc12`, the T/C [19] was 97 % of control, the T/C [20] was 104 % of control and the T/C [21] was 97 % of control.

`C=CCCCCCCCCC(=O)NCCCN1CCOCC1` was tested, and the T/C (dose: 50.0 mg/kg/injection, schedule: Q01DX009 (ip), vehicle: saline with Tween-80) was 103 % of control and the T/C [8] was 103 % of control.

With `O=C(NC(=S)Nc1ccc(F)cc1)c1ccco1` the T/C [2] was 94 % of control, the T/C [3] was 92 % of control and the T/C [4] was 103 % of control. The T/C [5] was 97 % of control.

`CCCC1(c2ccccc2)C(C#N)C(=O)NC(=O)C1C#N` (centres undefined) was tested, and the T/C [7] was 101 % of control and the T/C [9] was 97 % of control.

`[Cl][Pt][Cl].c1ccc([PH+](c2ccccc2)C2CCCCC2)cc1.c1ccc([PH+](c2ccccc2)C2CCCCC2)cc1` was tested, and the T/C (dose: 6.25 mg/kg/injection, schedule: Q04DX003 (ip), vehicle: water) was 96 % of control, the T/C (dose: 12.5 mg/kg/injection, schedule: Q04DX003 (ip), vehicle: water) was 98 % of control and the T/C (dose: 25.0 mg/kg/injection, schedule: Q04DX003 (ip), vehicle: water) was 96 % of control. The T/C (dose: 50.0 mg/kg/injection, schedule: Q04DX003 (ip), vehicle: water) was 98 % of control.

In the case of `Cc1ccc(S(=O)(=O)Nc2ccccc2C(=O)c2ccc(C)c(C)c2)cc1`, the T/C [18] is reported as 100 % of control.

In the case of `CN(C)N=Nc1cn(C)c(=O)n(C)c1=O`, the T/C (dose: 150.0 mg/kg/injection, schedule: Q04DX003 (ip), vehicle: water) is reported as 106 % of control.

With `COC(C#N)(Cc1ccccc1)Cc1ccccc1` the T/C (dose: 75.0 mg/kg/injection, schedule: Q01DX001 (ip), vehicle: other) was 92 % of control and the T/C (dose: 150.0 mg/kg/injection, schedule: Q01DX001 (ip), vehicle: other) was 95 % of control.

In the case of `CCC(C)(C)ON=O`, the T/C [19] is reported as 107 % of control, the T/C [20] is reported as 100 % of control and the T/C [21] is reported as 96 % of control.

`CCCCCCCCCCCCCCCCOB(OCCCCCCCCCCCCCCCC)OCCCCCCCCCCCCCCCC` was tested, and the T/C [4] was 91 % of control, the T/C [5] was 96 % of control and the T/C [6] was 94 % of control.

`CC(C)(C)/C(=N\[N+](C)(C)C)c1ccccc1` was tested, and the T/C [15] was 98 % of control.
